# Test results taken from patent US12570650B2, “6-substituted pyridazine compounds as SMARCA2 and/or SMARCA4 degraders” (Aurigene Oncology Limited, priority 2020, dated 2026).
# Experiments:
# SMARCA2 = molecular target: T1, SMARCA2 (Homo sapiens, UniProt P51531); test: SMARCA2 degradation in VCaP cells by Western blot; type: cell-based; details: 16 hours
# T1 construct: Determination of SMARCA2 and SMARCA4 Degradation in VCaP Cells by Western Blot; endogenous in cells; host or cells: VCaP (ATCC CRL-2876)
# Method: Example-P2: Determination of SMARCA2 and SMARCA4 Degradation in VCaP Cells by Western Blot
# VCaP (ATCC CRL-2876) was plated in 6 well plates using complete Dulbecco's Modified Eagle's Medium. On the third day, compounds of present invention were added to cells from 10 mM stocks made in DMSO (Sigma Cat no. D2650). Each concentration of compound was tested with DMSO not exceeding final percentage of 0.3 in the cells. Cells were incubated with the compound for 16 hours followed by harvesting with 1×RIPA lysis buffer (Thermo Fischer, catalogue number #89900) containing protease inhibitor cocktail (Sigma catalogue number #P-8340). Equal amount of protein was loaded on SDS PAGE gel for electrophoresis. Western blot was carried out for detection of either SMARCA2 (Cell signalling technologies, catalogue number #11966) or SMARCA4 antibody (Cell signalling technologies, catalogue number #52251). Beta-Tubulin antibody (Cell signalling technologies, catalogue number #86298) was used as loading control. Percentage of SMARCA2 or SMARCA4 degradation was calculated using formula % Degradation=100−(normalized band intensity in treated sample/normalized band intensity in DMSO sample)*100.
# SMARCA4 = molecular target: T2, SMARCA4 (Homo sapiens, UniProt P51532); test: SMARCA4 degradation in VCaP cells by Western blot; type: cell-based; details: 16 hours
# T2 construct: Determination of SMARCA2 and SMARCA4 Degradation in VCaP Cells by Western Blot; endogenous in cells; host or cells: VCaP (ATCC CRL-2876)
# Method: On the third day, compounds of present invention were added to cells from 10 mM stocks made in DMSO (Sigma Cat no. D2650). Each concentration of compound was tested with DMSO not exceeding final percentage of 0.3 in the cells. […] Equal amount of protein was loaded on SDS PAGE gel for electrophoresis. […] Percentage of SMARCA2 or SMARCA4 degradation was calculated using formula % Degradation=100−(normalized band intensity in treated sample/normalized band intensity in DMSO sample)*100.
# T2 sequence (P51532 whole entry): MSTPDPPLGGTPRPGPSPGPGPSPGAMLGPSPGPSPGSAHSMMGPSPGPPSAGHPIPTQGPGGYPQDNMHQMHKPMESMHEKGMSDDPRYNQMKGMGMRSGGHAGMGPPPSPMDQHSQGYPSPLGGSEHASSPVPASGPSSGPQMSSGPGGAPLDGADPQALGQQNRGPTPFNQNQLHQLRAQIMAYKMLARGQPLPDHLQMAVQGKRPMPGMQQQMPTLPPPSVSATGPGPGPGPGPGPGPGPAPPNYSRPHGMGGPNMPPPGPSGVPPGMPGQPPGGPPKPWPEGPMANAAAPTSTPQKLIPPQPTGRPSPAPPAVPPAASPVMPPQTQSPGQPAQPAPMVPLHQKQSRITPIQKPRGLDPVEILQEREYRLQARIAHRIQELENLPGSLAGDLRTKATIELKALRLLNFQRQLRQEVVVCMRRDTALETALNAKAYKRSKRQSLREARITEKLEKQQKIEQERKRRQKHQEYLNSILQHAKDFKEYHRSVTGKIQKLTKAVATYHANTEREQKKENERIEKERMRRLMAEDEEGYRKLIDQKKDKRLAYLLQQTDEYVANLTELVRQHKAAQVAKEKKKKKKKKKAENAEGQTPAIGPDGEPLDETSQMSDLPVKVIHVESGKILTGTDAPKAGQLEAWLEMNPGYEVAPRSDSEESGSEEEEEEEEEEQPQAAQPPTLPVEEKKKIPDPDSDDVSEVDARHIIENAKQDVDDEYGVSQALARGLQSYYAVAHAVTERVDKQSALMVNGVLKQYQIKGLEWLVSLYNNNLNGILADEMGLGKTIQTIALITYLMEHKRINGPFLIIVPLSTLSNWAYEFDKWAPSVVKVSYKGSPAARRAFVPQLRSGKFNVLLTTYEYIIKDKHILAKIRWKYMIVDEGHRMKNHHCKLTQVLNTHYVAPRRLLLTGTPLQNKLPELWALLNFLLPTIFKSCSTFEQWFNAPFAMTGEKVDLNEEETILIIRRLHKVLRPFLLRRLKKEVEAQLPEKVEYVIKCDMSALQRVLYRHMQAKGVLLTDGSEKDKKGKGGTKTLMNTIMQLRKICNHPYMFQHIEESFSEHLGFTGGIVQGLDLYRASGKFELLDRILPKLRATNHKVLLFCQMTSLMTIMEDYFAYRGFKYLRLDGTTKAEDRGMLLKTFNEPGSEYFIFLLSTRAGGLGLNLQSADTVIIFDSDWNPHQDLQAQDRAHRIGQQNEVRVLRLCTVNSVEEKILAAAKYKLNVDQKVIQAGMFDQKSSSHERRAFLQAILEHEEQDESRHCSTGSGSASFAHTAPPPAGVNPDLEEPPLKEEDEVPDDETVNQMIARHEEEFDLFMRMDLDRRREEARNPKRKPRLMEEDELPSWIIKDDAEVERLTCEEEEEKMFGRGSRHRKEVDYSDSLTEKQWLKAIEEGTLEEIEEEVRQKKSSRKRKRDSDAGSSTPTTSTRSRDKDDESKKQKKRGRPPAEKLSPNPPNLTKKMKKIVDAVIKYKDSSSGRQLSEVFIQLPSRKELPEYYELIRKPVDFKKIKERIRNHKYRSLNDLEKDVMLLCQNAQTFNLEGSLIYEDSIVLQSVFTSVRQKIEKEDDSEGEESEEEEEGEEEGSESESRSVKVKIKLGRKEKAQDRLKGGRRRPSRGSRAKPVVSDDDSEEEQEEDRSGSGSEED
# T1 sequence (P51531 whole entry): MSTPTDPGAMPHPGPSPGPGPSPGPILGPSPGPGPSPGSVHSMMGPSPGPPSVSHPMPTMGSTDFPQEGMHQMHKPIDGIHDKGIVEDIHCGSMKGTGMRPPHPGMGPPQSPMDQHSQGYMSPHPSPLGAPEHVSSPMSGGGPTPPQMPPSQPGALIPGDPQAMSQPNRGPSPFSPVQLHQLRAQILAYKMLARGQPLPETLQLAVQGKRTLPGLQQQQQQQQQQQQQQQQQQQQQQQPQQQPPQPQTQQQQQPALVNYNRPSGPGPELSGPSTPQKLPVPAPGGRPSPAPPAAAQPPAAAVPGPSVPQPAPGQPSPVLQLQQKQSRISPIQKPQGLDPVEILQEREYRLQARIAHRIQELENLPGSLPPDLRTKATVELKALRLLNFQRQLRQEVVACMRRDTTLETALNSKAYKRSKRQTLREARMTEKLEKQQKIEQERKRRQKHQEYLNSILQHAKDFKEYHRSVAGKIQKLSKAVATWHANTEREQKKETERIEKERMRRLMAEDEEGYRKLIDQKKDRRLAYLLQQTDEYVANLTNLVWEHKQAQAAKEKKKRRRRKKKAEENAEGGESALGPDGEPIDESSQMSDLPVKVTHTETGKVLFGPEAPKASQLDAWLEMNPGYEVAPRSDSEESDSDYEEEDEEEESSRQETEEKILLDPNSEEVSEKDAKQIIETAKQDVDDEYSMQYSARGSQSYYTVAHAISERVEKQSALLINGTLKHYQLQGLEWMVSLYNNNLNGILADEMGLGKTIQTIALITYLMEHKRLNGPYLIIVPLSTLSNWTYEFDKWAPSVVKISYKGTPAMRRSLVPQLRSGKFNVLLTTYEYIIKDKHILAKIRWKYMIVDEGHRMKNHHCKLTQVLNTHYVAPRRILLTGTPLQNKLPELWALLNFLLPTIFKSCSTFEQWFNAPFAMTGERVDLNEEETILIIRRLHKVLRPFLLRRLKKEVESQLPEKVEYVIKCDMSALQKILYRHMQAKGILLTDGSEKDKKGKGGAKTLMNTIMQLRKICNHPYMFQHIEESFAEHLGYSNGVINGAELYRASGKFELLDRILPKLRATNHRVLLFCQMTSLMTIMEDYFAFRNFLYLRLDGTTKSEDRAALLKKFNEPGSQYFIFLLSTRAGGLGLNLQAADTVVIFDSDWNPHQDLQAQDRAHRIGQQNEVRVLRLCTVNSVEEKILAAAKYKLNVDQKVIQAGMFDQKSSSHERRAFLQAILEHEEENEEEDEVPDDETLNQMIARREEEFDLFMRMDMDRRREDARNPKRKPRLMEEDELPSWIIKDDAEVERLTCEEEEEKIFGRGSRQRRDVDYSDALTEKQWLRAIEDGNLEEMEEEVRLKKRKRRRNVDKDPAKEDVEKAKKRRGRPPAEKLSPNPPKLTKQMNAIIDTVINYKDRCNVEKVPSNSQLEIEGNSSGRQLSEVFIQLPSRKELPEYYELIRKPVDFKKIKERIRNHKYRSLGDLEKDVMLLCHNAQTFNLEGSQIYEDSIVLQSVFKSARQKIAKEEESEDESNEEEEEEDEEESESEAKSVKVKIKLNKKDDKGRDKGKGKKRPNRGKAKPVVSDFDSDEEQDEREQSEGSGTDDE
SMILES,Percent degradation (at 100 nM) SMARCA2 (SMARCA2),Percent degradation (at 100 nM) SMARCA4 (SMARCA4)
"Cc1ncsc1-c1ccc([C@H](CO)NC(=O)[C@@H]2C[C@@H](O)CN2C(=O)[C@@H](NC(=O)CN2CCN(c3ccc(-c4cnnc(-c5ccccc5O)c4)cc3)CC2)C(C)(C)C)cc1 [Compound 48, (2S,4R)-4-hydroxy-N-((R)-2-hydroxy-1-(4-(4-methylthiazol-5-yl)phenyl)ethyl)-1-((S)-2-(2-(4-(4-(6-(2-hydroxyphenyl)pyridazin-4-yl)phenyl)piperazin-1-yl)acetamido)-3,3-dimethylbutanoyl)pyrrolidine-2-carboxamide]",90%,21%
"Cc1ncsc1-c1ccc([C@H](C)NC(=O)[C@@H]2C[C@@H](O)CN2C(=O)[C@@H](NC(=O)CN2CCN(c3ccc(-c4cnnc(-c5cccc6cc[nH]c56)c4)cc3)CC2)C(C)(C)C)cc1 [Compound 39, (2S,4R)-1-((S)-2-(2-(4-(4-(6-(1H-indol-7-yl)pyridazin-4-yl)phenyl)piperazin-1-yl)acetamido)-3,3-dimethylbutanoyl)-4-hydroxy-N-((S)-1-(4-(4-methylthiazol-5-yl)phenyl)ethyl)pyrrolidine-2-carboxamide]",46%,17%
"Cc1ncsc1-c1ccc([C@H](C)NC(=O)[C@@H]2C[C@@H](O)CN2C(=O)[C@@H](NC(=O)C(C)N2CCN(c3ccc(-c4cnnc(-c5ccccc5O)c4)cc3)CC2)C(C)(C)C)cc1 (single isomer, unassigned) [Compound 29]",40%,0%
"Cc1ncsc1-c1ccc([C@H](C)NC(=O)[C@@H]2C[C@@H](O)CN2C(=O)[C@@H](NC(=O)CN2CCC(n3cc(-c4cnnc(-c5ccccc5O)c4)cn3)CC2)C(C)(C)C)cc1 [Compound 33, (2S,4R)-4-hydroxy-1-((S)-2-(2-(4-(4-(6-(2-hydroxyphenyl)pyridazin-4-yl)-1H-pyrazol-1-yl)piperidin-1-yl)acetamido)-3,3-dimethylbutanoyl)-N-((S)-1-(4-(4-methylthiazol-5-yl)phenyl)ethyl)pyrrolidine-2-carboxamide]",69%,0%
"Cc1ncsc1-c1ccc([C@H](C)NC(=O)[C@@H]2C[C@@H](O)CN2C(=O)[C@@H](NC(=O)CCN2CCN(c3ccc(-c4cnnc(-c5ccccc5O)c4)cc3)CC2)C(C)(C)C)cc1 [Compound 8, (2S,4R)-4-hydroxy-1-((S)-2-(3-(4-(4-(6-(2-hydroxyphenyl)pyridazin-4-yl)phenyl)piperazin-1-yl)propanamido)-3,3-dimethylbutanoyl)-N-((S)-1-(4-(4-methylthiazol-5-yl)phenyl)ethyl)pyrrolidine-2-carboxamide]",84%,20%
"Cc1ncsc1-c1ccc([C@H](C)NC(=O)[C@@H]2C[C@@H](O)CN2C(=O)[C@@H](NC(=O)CN2CCN(c3ccc(-c4cnnc(-c5ccccc5O)c4)cc3F)CC2)C(C)(C)C)cc1 [Compound 26, (2S,4R)-1-((S)-2-(2-(4-(2-fluoro-4-(6-(2-hydroxyphenyl)pyridazin-4-yl)phenyl)piperazin-1-yl)acetamido)-3,3-dimethylbutanoyl)-4-hydroxy-N-((S)-1-(4-(4-methylthiazol-5-yl)phenyl)ethyl)pyrrolidine-2-carboxamide]",89%,0%
"Cc1ncsc1-c1ccc([C@H](C)NC(=O)[C@@H]2C[C@@H](O)CN2C(=O)[C@@H](NC(=O)CN2CCN(c3ccc(-c4cnnc(-c5cnn(C)c5)c4)cc3)CC2)C(C)(C)C)cc1 [Compound 9, (2S,4R)-1-((S)-3,3-dimethyl-2-(2-(4-(4-(6-(1-methyl-1H-pyrazol-4-yl)pyridazin-4-yl)phenyl)piperazin-1-yl)acetamido)butanoyl)-4-hydroxy-N-((S)-1-(4-(4-methylthiazol-5-yl)phenyl)ethyl)pyrrolidine-2-carboxamide]",0%,14%
"Cc1ncsc1-c1ccc([C@H](C)NC(=O)[C@@H]2C[C@@H](O)CN2C(=O)C(c2cc(-c3ccc(-c4cnnc(-c5ccccc5O)c4)cc3)no2)C(C)C)cc1 (mixture of isomers) [Compound 1, (2S,4R)-4-hydroxy-1-(2-(3-(4-(6-(2-hydroxyphenyl)pyridazin-4-yl)phenyl)isoxazol-5-yl)-3-methylbutanoyl)-N-((S)-1-(4-(4-methylthiazol-5-yl)phenyl)ethyl)pyrrolidine-2-carboxamide]",0%,30%
"Cc1ncsc1-c1ccc([C@H](C)NC(=O)[C@@H]2C[C@@H](O)CN2C(=O)[C@@H](NC(=O)CN2CCN(c3ccc(-c4cnnc(Cl)c4)cc3)CC2)C(C)(C)C)cc1 [Compound 3, (2S,4R)-1-((S)-2-(2-(4-(4-(6-chloropyridazin-4-yl)phenyl)piperazin-1-yl)acetamido)-3,3-dimethylbutanoyl)-4-hydroxy-N-((S)-1-(4-(4-methylthiazol-5-yl)phenyl)ethyl)pyrrolidine-2-carboxamide]",20%,47%
"Cc1ncsc1-c1ccc([C@H](C)NC(=O)[C@@H]2C[C@@H](O)CN2C(=O)[C@@H](NC(=O)CCCCOc2ccc(-c3cnnc(-c4ccccc4O)c3)cc2)C(C)(C)C)cc1 [Compound 34, (2S,4R)-4-hydroxy-1-((S)-2-(5-(4-(6-(2-hydroxyphenyl)pyridazin-4-yl)phenoxy)pentanamido)-3,3-dimethylbutanoyl)-N-((S)-1-(4-(4-methylthiazol-5-yl)phenyl)ethyl)pyrrolidine-2-carboxamide]",81%,58%
"Cc1ncsc1-c1ccc([C@H](C)NC(=O)[C@@H]2C[C@@H](O)CN2C(=O)[C@@H](NC(=O)CN2CCN(c3ccc(-c4cnnc(-c5ccccc5C(F)F)c4)cc3)CC2)C(C)(C)C)cc1 [Compound 37, (2S,4R)-1-((S)-2-(2-(4-(4-(6-(2-(difluoromethyl)phenyl)pyridazin-4-yl)phenyl)piperazin-1-yl)acetamido)-3,3-dimethylbutanoyl)-4-hydroxy-N-((S)-1-(4-(4-methylthiazol-5-yl)phenyl)ethyl)pyrrolidine-2-carboxamide]",45%,26%
"Cc1ncsc1-c1ccc(C(CN(C)C)NC(=O)[C@@H]2C[C@@H](O)CN2C(=O)[C@@H](NC(=O)CN2CCN(c3ccc(-c4cnnc(-c5ccccc5O)c4)cc3)CC2)C(C)(C)C)cc1 (stereo partly drawn) [Compound 49, (2S,4R)-N-(2-(dimethylamino)-1-(4-(4-methylthiazol-5-yl)phenyl)ethyl)-4-hydroxy-1-((S)-2-(2-(4-(4-(6-(2-hydroxyphenyl)pyridazin-4-yl)phenyl)piperazin-1-yl)acetamido)-3,3-dimethylbutanoyl)pyrrolidine-2-carboxamide]",93%,48%
"Cc1ncsc1-c1ccc([C@H](C)NC(=O)[C@@H]2C[C@@H](O)CN2C(=O)[C@@H](NC(=O)CN2CCN(c3ccc(-c4cnnc(-c5cccc6ccoc56)c4)cc3)CC2)C(C)(C)C)cc1 [Compound 40, (2S,4R)-1-((S)-2-(2-(4-(4-(6-(benzofuran-7-yl)pyridazin-4-yl)phenyl)piperazin-1-yl)acetamido)-3,3-dimethylbutanoyl)-4-hydroxy-N-((S)-1-(4-(4-methylthiazol-5-yl)phenyl)ethyl)pyrrolidine-2-carboxamide]",6%,3%
"Cc1ncsc1-c1ccc([C@H](C)NC(=O)[C@@H]2C[C@@H](O)CN2C(=O)[C@@H](NC(=O)CN2CCN(c3ccc(-c4cnnc(-c5cccc6cn[nH]c56)c4)cc3)CC2)C(C)(C)C)cc1 [Compound 41, (2S,4R)-1-((S)-2-(2-(4-(4-(6-(1H-indazol-7-yl)pyridazin-4-yl)phenyl)piperazin-1-yl)acetamido)-3,3-dimethylbutanoyl)-4-hydroxy-N-((S)-1-(4-(4-methylthiazol-5-yl)phenyl)ethyl)pyrrolidine-2-carboxamide]",12%,22%
"Cc1ncsc1-c1ccc([C@H](C)NC(=O)[C@@H]2C[C@@H](O)CN2C(=O)C(c2cc(OCCN(C)c3ccc(-c4cnnc(-c5ccccc5O)c4)cc3)no2)C(C)C)cc1 (mixture of isomers) [Compound 44, (2S,4R)-4-hydroxy-1-(2-(3-(2-((4-(6-(2-hydroxyphenyl)pyridazin-4-yl)phenyl)(methyl)amino)ethoxy)isoxazol-5-yl)-3-methylbutanoyl)-N-((S)-1-(4-(4-methylthiazol-5-yl)phenyl)ethyl)pyrrolidine-2-carboxamide]",22%,6%
